{
  "source": "patent US4056674A",
  "about": "“Derivatives of 3-deazaguanine” (priority 1975, dated 1977)",
  "key": {"vaccinia virus": {"test_system": "vaccinia virus", "format": "cell-based", "conditions": "VV; KB or RK-13 cells; VR >0.5 significant, <0.5 slight antiviral activity"}, "L1210 cells [1]": {"test_system": "L1210 cells", "test": "Inhibition of incorporation of 3H-thymidine into the acid-insoluble fraction of L1210 cells", "format": "cell-based", "conditions": "Mus musculus; 10^-5 M; L1210 cells in tissue culture", "description": "(§1) In this example compound 30 was tested for antitumor activity in mice. […] A 10^-5 M concentration of compound 30 caused 50% inhibition of the incorporation of ^3 H-thymidine and ^3 H-uridine into the acidinsoluble fraction of L1210 cells in tissue culture. […] Ara C (cytosine arabinoside) was included as a standard."}, "[2]": {"test_system": "Parainfluenza virus, type 3", "test": "In vitro antiviral, inhibition of virus-induced CPE, PIV/3", "format": "cell-based", "conditions": "PIV/3; KB or RK-13 cells; VR >0.5 significant, <0.5 slight antiviral activity"}, "rhinovirus, type 1A": {"test_system": "rhinovirus, type 1A", "test": "In vitro antiviral, inhibition of virus-induced CPE, RV/1A", "format": "cell-based", "conditions": "KB or RK-13 cells, VR >0.5 significant, <0.5 slight antiviral activity"}, "human cytomegalovirus": {"test_system": "human cytomegalovirus", "test": "In vitro antiviral, inhibition of virus-induced CPE, HCMV", "format": "cell-based", "conditions": "KB or RK-13 cells, VR >0.5 significant, <0.5 slight antiviral activity"}, "Hela cells": {"test_system": "Hela cells", "test": "Cytotoxicity to Hela cells in tissue culture", "format": "cell-based"}, "Proteus": {"test_system": "Proteus", "test": "In vitro antibacterial, broth dilution assay, Proteus", "format": "cell-based", "conditions": "24 h, read-out: Average MIC", "description": "(§2) In this example compounds 7 and 30 were tested to determine their in vitro antibacterial activity. Clinical isolates of pathogens were used for this example. In vitro sensitivity of these organisms were quantitatively determined by broth dilution assay. Serial dilutions were prepared in chemically defined medium in a range from 100 to 0.01 μg/ml. The minimal Inhibitory Concentration (MIC) was recorded as the highest dilution of compound which prevented visible growth of the pathogen following 24 hr incubation at 35°."}, "myxoma virus": {"test_system": "myxoma virus", "test": "In vitro antiviral, inhibition of virus-induced CPE, MV", "format": "cell-based", "conditions": "KB or RK-13 cells, VR >0.5 significant, <0.5 slight antiviral activity", "description": "(§3) In this example, compounds 3, 4, 13, 16, 20, 22, 29 and 30 were tested to determine their in vitro antiviral efficacy, using the inhibition virus-induced cytopathogenic effect (CPE) method of Sidwell, et al. (Applied Microbiology 22:797-801, 1971). Briefly, the CPE procedure includes the suspension of the antiviral agent in a cell culture medium consisting of vitamins, amino acids, serum, buffer, penicillin, streptomycin and indicator dye in water. The virus suspended in the cell culture medium was added to an established monolayer of KB cells or RK-13 cells, and an equal volume of the antiviral agent was then added within 15 minutes. The infected treated cells were graded following microscopic examination. Controls for each experiment include cell controls cells and cell culture medium only), virus controls (cell and virus cell culture medium) and toxicity controls (cells and chemical and cell culture medium).\n(§4) The virus rating (VR) system of Sidwell et al., described in Applied Microbiology, supra, was used to evaluate the degree of significance of CPE inhibition."}, "murine cytomegalovirus": {"test_system": "murine cytomegalovirus", "test": "In vitro antiviral, inhibition of virus-induced CPE, MCMV", "format": "cell-based", "conditions": "KB or RK-13 cells, VR >0.5 significant, <0.5 slight antiviral activity", "description": "as §3, §4"}, "influenza virus, type Ao": {"test_system": "influenza virus, type Ao", "test": "In vitro antiviral, inhibition of virus-induced CPE, IV/Ao", "format": "cell-based", "conditions": "KB or RK-13 cells, VR >0.5 significant, <0.5 slight antiviral activity"}, "pseudorabies virus": {"test_system": "pseudorabies virus", "format": "cell-based", "conditions": "PRV; KB or RK-13 cells; VR >0.5 significant, <0.5 slight antiviral activity"}, "[3]": {"test_system": "herpes simplex virus, type 1", "test": "In vitro antiviral, inhibition of virus-induced CPE, HSV/1", "format": "cell-based", "conditions": "KB or RK-13 cells, VR >0.5 significant, <0.5 slight antiviral activity"}, "rhinovirus, type 13": {"test_system": "rhinovirus, type 13", "test": "In vitro antiviral, inhibition of virus-induced CPE, RV/13", "format": "cell-based", "conditions": "KB or RK-13 cells, VR >0.5 significant, <0.5 slight antiviral activity"}, "RV/2: rhinovirus, type 1": {"test_system": "RV/2: rhinovirus, type 1", "test": "In vitro antiviral, inhibition of virus-induced CPE, RV/2", "format": "cell-based", "conditions": "KB or RK-13 cells, VR >0.5 significant, <0.5 slight antiviral activity"}, "L1210 cells [4]": {"test_system": "L1210 cells", "test": "Inhibition of incorporation of 3H-uridine into the acid-insoluble fraction of L1210 cells", "format": "cell-based", "conditions": "Mus musculus; 10^-5 M; L1210 cells in tissue culture", "description": "as §1"}, "L1210 cells [5]": {"test_system": "L1210 cells", "test": "Cytotoxicity to L1210 cells in tissue culture", "format": "cell-based", "description": "as §1"}, "[6]": {"test_system": "vesicular stomatitis virus", "format": "cell-based", "conditions": "VSV; KB or RK-13 cells; VR >0.5 significant, <0.5 slight antiviral activity"}, "adenocarcinoma 755": {"test_system": "adenocarcinoma 755", "test": "Inhibition of growth of subcutaneous implants of adenocarcinoma 755 in C57 Blk/6 female mice", "format": "in vivo", "conditions": "40 mg/kg i.p. (qd, 1-7)"}, "rhinovirus, type 8": {"test_system": "rhinovirus, type 8", "test": "In vitro antiviral, inhibition of virus-induced CPE, RV/8", "format": "cell-based", "conditions": "KB or RK-13 cells, VR >0.5 significant, <0.5 slight antiviral activity"}, "rhinovirus, type 56": {"test_system": "rhinovirus, type 56", "test": "In vitro antiviral, inhibition of virus-induced CPE, RV/56", "format": "cell-based", "conditions": "KB or RK-13 cells, VR >0.5 significant, <0.5 slight antiviral activity"}, "Escherichis": {"test_system": "Escherichis", "test": "In vitro antibacterial, broth dilution assay, Escherichia", "format": "cell-based", "conditions": "24 h, read-out: Average MIC", "description": "as §2"}, "rhinovirus, type 30": {"test_system": "rhinovirus, type 30", "test": "In vitro antiviral, inhibition of virus-induced CPE, RV/30", "format": "cell-based", "conditions": "KB or RK-13 cells, VR >0.5 significant, <0.5 slight antiviral activity", "description": "as §3, §4"}, "LD10": {"test": "LD10", "parameters": "species or system mice", "conditions": "mouse, in vivo"}, "[7]": {"test_system": "parainfluenza virus, type 1", "test": "In vitro antiviral, inhibition of virus-induced CPE, PIV/1", "format": "cell-based", "conditions": "PIV/1; KB or RK-13 cells; VR >0.5 significant, <0.5 slight antiviral activity"}, "adenovirus, type 3": {"test_system": "adenovirus, type 3", "test": "In vitro antiviral, inhibition of virus-induced cytopathogenic effect (CPE), AV/3", "format": "cell-based", "conditions": "KB or RK-13 cells, VR >0.5 significant, <0.5 slight antiviral activity"}, "leukemia L1210": {"test_system": "leukemia L1210", "test": "Activity against leukemia L1210 in BDF1 female mice", "format": "in vivo", "conditions": "qd [1-9]", "description": "as §1\nAll animals were inoculated (i.p) with 10^5 leukemic cells. Treatment\nwas started 24 hours after transplant. Figures in parenthesis denote 21"}},
  "note": "Values joined by “and” are separate entries in the source; they are usually repeats but may differ in a detail not shown here. Equal entries are not always repeated.",
  "data": [
    {"molecule": "Nc1cc2nc[nH]c2c(=O)[nH]1", "note": "[Compound 30, 6-Amino-imidazo[4,5c]pyridin-4(5H)one]", "values": [
      {"measurement": "Virus rating (VR)", "setting": "vaccinia virus", "result": 1.2},
      {"measurement": "inhibition at 10 µM", "setting": "L1210 cells [1]", "result": 50, "unit": "%"},
      {"measurement": "Virus rating (VR)", "setting": "[2]", "result": 1.0},
      {"measurement": "Virus rating (VR)", "setting": "rhinovirus, type 1A", "result": 0.3},
      {"measurement": "Virus rating (VR)", "setting": "human cytomegalovirus", "result": 0.3},
      {"measurement": "cytotoxic to Hela cells", "setting": "Hela cells", "result": "cytotoxic"},
      {"measurement": "MIC", "setting": "Proteus", "result": 25, "unit": "µg/mL"},
      {"measurement": "Virus rating (VR)", "setting": "myxoma virus", "result": 0.9},
      {"measurement": "Virus rating (VR)", "setting": "murine cytomegalovirus", "result": 0.6},
      {"measurement": "Virus rating (VR)", "setting": "influenza virus, type Ao", "result": 0.5},
      {"measurement": "Virus rating (VR)", "setting": "pseudorabies virus", "result": 0.3},
      {"measurement": "Virus rating (VR)", "setting": "[3]", "result": 1.3},
      {"measurement": "Virus rating (VR)", "setting": "rhinovirus, type 13", "result": 1.2},
      {"measurement": "Virus rating (VR)", "setting": "RV/2: rhinovirus, type 1", "result": 1.3},
      {"measurement": "inhibition at 10 µM", "setting": "L1210 cells [4]", "result": 50, "unit": "%"},
      {"measurement": "cytotoxic to L1210 cells", "setting": "L1210 cells [5]", "result": "cytotoxic"},
      {"measurement": "Virus rating (VR)", "setting": "[6]", "result": 1.3},
      {"measurement": "inhibition of the growth of subcutaneous implants", "setting": "adenocarcinoma 755", "result": "75% and 93%"},
      {"measurement": "Virus rating (VR)", "setting": "rhinovirus, type 8", "result": 1.3},
      {"measurement": "Virus rating (VR)", "setting": "rhinovirus, type 56", "result": 1.1},
      {"measurement": "MIC", "setting": "Escherichis", "result": 6, "unit": "µg/mL"},
      {"measurement": "Virus rating (VR)", "setting": "rhinovirus, type 30", "result": 0.3},
      {"measurement": "LD10", "setting": "LD10", "result": 500, "unit": "mg/kg"},
      {"measurement": "Virus rating (VR)", "setting": "[7]", "result": 1.0},
      {"measurement": "Virus rating (VR)", "setting": "adenovirus, type 3", "result": 1.1},
      {"measurement": "21 day survivors", "setting": "leukemia L1210; 20 mg/kg i.p.", "result": "0/6"},
      {"measurement": "Average Mean Survival", "setting": "leukemia L1210; 20 mg/kg i.p.", "result": 10.83, "unit": "days"},
      {"measurement": "T/C", "setting": "leukemia L1210; 20 mg/kg i.p.", "result": 1.32},
      {"measurement": "increased the life span", "setting": "leukemia L1210; 20 mg/kg i.p.", "result": 32, "unit": "%"},
      {"measurement": "ΔWt.", "setting": "leukemia L1210; 20 mg/kg i.p.", "result": "+2.0 g"},
      {"measurement": "21 day survivors", "setting": "leukemia L1210; 40 mg/kg i.p.", "result": "1/6"},
      {"measurement": "Average Mean Survival", "setting": "leukemia L1210; 40 mg/kg i.p.", "result": 12.00, "unit": "days"},
      {"measurement": "T/C", "setting": "leukemia L1210; 40 mg/kg i.p.", "result": 1.43},
      {"measurement": "increased the life span", "setting": "leukemia L1210; 40 mg/kg i.p.", "result": 43, "unit": "%"},
      {"measurement": "ΔWt.", "setting": "leukemia L1210; 40 mg/kg i.p.", "result": "+0.4 g"},
      {"measurement": "21 day survivors", "setting": "leukemia L1210; 80 mg/kg i.p.", "result": "0/6"},
      {"measurement": "Average Mean Survival", "setting": "leukemia L1210; 80 mg/kg i.p.", "result": 13.33, "unit": "days"},
      {"measurement": "T/C", "setting": "leukemia L1210; 80 mg/kg i.p.", "result": 1.63},
      {"measurement": "increased the life span", "setting": "leukemia L1210; 80 mg/kg i.p.", "result": 63, "unit": "%"},
      {"measurement": "ΔWt.", "setting": "leukemia L1210; 80 mg/kg i.p.", "result": "+1.7 g"}
    ]}
  ]
}
